# Source: US20040053989A1, “Dithiolthione compounds for the treatment of neurological disorders and for memory enhancement” (Patrick Prendergast, priority 1999, published 2004)
# “Also recorded” adds a separate entry of the source. Like-named read-outs stand apart in the source and are kept apart here.
# Assays:
# [1] = H2O2-dependent oxidation of 3,3′-diaminobenzidine (DAB) by lesions in AD brain tissue sections after chelator treatment; parameters: species or system human; settings: prior treatment of AD brain tissue sections
# Description: AD is associated with abnormalities of iron metabolism including increased levels of free iron as well as altered levels of iron transport and storage proteins. […] In addition to the NFT and Aβ deposits, redox active metals can be identified in the cytoplasm by the same DAB reaction. […] Although in situ histochemical techniques lack the sensitivity to detect copper, copper (as well as iron) could contribute to the redox activity. The relative effectiveness of copper- and iron-selective chelating agents was used to remove the lesion-dependent redox activity, which provided evidence for both copper- and iron-mediated redox activity in AD. […] Also, DAB oxidation was inhibited by chelation of metals with […]
# [2] = test system: Primary cortical neuron cultures; settings: Oltipraz 20 μM, Aβ1-42 25 μM, 5 days, MTT; p<0.05, ANOVA
# Experimental: Primary cortical neuron cultures were established from E14 mice. […] Cultures were incubated for 5 days (37° C.) and then cell viability was determined using the MTT reduction assay. Cultures were also monitored for morphological changes by phase contrast microscopy. The MTT assay was performed by adding water soluble MTT to the culture medium at 0.5 mg/mL and incubating for 30 min. […] The culture medium was removed and the MTT solubilized in DMSO. Aliquots of solubilized MTT were read on a spectrophotometric plate reader at 570 nm.
# [3] = test system: Primary fibroblast cultures; assay: H2O2 toxicity in primary fibroblast cultures, murine model for oxidative stress (MTT); assay type: cell-based, mice; settings: H2O2 150 μM, Oltipraz 25 μM
# Experimental: (§1) Primary fibroblast cultures were prepared from normal mice (non Tg), mice transfected to produce human wild type presenilin 1 (WT Tg) or mice transfected to produce mutant human presenilin 1 (Mut Tg). All mice are derived from an identical genetic background. […] 50U/mL of catalase was used as a benchmark antioxidant against H2O2 toxicity. Cell viability was determined with the MTT reduction assay. […] Cell viability was determined with the MTT assay.
# Mut Tg fibroblasts = settings: Oltipraz 10, 25 and 50 μM; fibroblasts treated with toxic levels of BSO
# Experimental: as §1
# [4] = test system: neurons and clonal cell lines; assay: Attenuation of amyloid-β toxicity; assay type: cell-based; settings: for attenuation of amyloid-β toxicity, dose dependence: pre-incubated with amyloid-β
# Description: In vitro, amyloid-β is toxic to neurons and clonal cell lines.
# L. donovani = assay: In vitro anti-protozoal activity, L. donovani; assay type: cell-based
# T. cruzi = assay: In vitro anti-protozoal activity, T. cruzi; assay type: cell-based
# T.b.rhodesiense STIB900 = assay: In vitro anti-protozoal activity, T.b.rhodesiense STIB900; assay type: cell-based
# P. falciparum 3D7 = test system: P. falciparum 3D7
# Experimental: For in-vitro antimalarial testings, micro-titer plates were used. The concentration of drugs was prepared as pMol/well according to WHO standard procedures (WHO, 1990). The test compound was dissolved in 15% DMSO in sterile RPMI 1640.
# The micro-titer plates were predosed with various concentration of the test compound. 50 μL of parasitised erythrocyte suspension in RPMI-1640 (0.2 ml erythrocyte +0.3 ml serum +4-5 ml RPMI-1640) were dispensed in microtiter wells containing various concentrations of drug. Triplicate readings were made for each concentration.
# The testing was carried out according to the procedure of Desjardins et al. 1979. After 30 hr culture at 37 degrees C., the same microtiter plates from schizont inhibition assays with another triplicate wells were pulsed with ^3H-hypoxanthine for overnight. The cell suspensions were washed twice on millipore glass fiber filter with Millipore filter apparatus. The filter discs were counted for DPM by Beckman LS6000-scintillation counter. The activity of the drug was measured by plotting DPM against concentration of drug.
# [5] = sections treated 2 hrs or overnight
# [6] = doses of oltipraz effective at chelating in situ or abolishing amyloid-β toxicity; preliminary data
structure (smiles),measurement,setting,value
"O=C(O)CN(CCN(CC(=O)O)CC(=O)O)CCN(CC(=O)O)CC(=O)O [DTPA, detapac]",inhibition of lesion-associated DAB oxidation,[1]; 1 mM chelator,inhibited more than half
same,inhibition of lesion-associated DAB oxidation,[1]; 10 mM chelator,completely abolished; also recorded: nearly all
same,inhibition of lesion-associated DAB oxidation,[1]; 100 mM chelator,abolished all
"Cc1c(-c2cnccn2)ssc1=S [Oltipraz, oltipraz]",cell viability compared to Aβ1-42 alone,[2],small increase in cell viability
same,protective effect relative to that achieved with 50U/mL catalase,[3],about two thirds
same,protective effect against H2O2 toxicity,[3]; fibroblasts from Mut Tg mice (mutant human presenilin 1),not in fibroblasts from Mut Tg mice
same,protective effect against H2O2 toxicity,[3]; fibroblasts from WT Tg mice (human wild type presenilin 1),significant protective effect
same,protective effect against H2O2 toxicity,[3]; fibroblasts from non Tg mice,significant protective effect
same,cell viability restored,Mut Tg fibroblasts,100%
same,attenuation of the neurotoxicity of amyloid-β,[4],significantly attenuate
same,"attenuation of amyloid-β toxicity, dose dependence",[4],reduced in a dose-dependent manner similar to that of deferoxamine
same,"attenuation of amyloid-β toxicity, dose dependence",[4]; listed as oltipraz,attenuate its toxicity in a dose-dependent manner similar to that of deferoxamine
same,cell survival in brain tissue sections,[4]; shown in a figure,increase cell survival
same,% Inhibition,L. donovani; concentration 10,0%
same,% Inhibition,L. donovani; concentration 30,3.2%
same,% Inhibition,T. cruzi; concentration 1,4.3%
same,% Inhibition,T. cruzi; concentration 3,38.6%
same,% Inhibition,T. cruzi; concentration 10,54.6%
same,% Inhibition,T. cruzi; concentration 30,99.7%
same,"ED50 column, second value in parentheses (not explained)",T. cruzi; line below the ED50,(23.8) μg/ml
same,% Inhibition,T.b.rhodesiense STIB900; concentration 10,0%
same,% Inhibition,T.b.rhodesiense STIB900; concentration 30,42.5%
same,% Inhibition,P. falciparum 3D7; concentration 1,0%
same,% Inhibition,P. falciparum 3D7; concentration 3,4.4%
same,% Inhibition,P. falciparum 3D7; concentration 10,96.5%
same,% Inhibition,P. falciparum 3D7; concentration 30,100%
same,iron removal compared with DFX,[5],not as effective as DFX
same,neurotoxicity in vitro,[6],little/no neurotoxicity
